Reference: patent publication US9249180B2, “C-3 alkyl and alkenyl modified betulinic acid derivatives” (priority 2013, dated 2016)
pEC50: −log10 of the molar value.

The compounds below were run on recombinant NL4-3 virus (Renilla luciferase in nef, Gag P373S; NLRluc) in MT-2 cells (assay: HIV Cell Culture Assay (luciferase reporter, antiviral activity)). Settings: Renilla, NL43, MT-2 cells infected for 4-5 days with NLRluc recombinants, serial dilutions of the inhibitor.
Format: cell-based
Procedure: HIV Cell Culture Assay—MT-2 cells and 293T cells were obtained from the NIH AIDS Research and Reference Reagent Program. MT-2 cells were propagated in RPMI 1640 media supplemented with 10% heat inactivated fetal bovine serum, […]. The 293T cells were propagated in DMEM media supplemented with 10% heat inactivated fetal bovine serum (FBS), 100 units/ml penicillin G and 100 μg/ml streptomycin. The proviral DNA clone of NL4-3 was obtained from the NIH AIDS Research and Reference Reagent Program. A recombinant NL4-3 virus, in which a section of the nef gene from NL4-3 was replaced with the Renilla luciferase gene, was used as a reference virus. In addition, residue Gag P373 was converted to P373S. Briefly, the recombinant virus was prepared by transfection of the altered proviral clone of NL4-3. Transfections were performed in 293T cells using LipofectAMINE PLUS from Invitrogen (Carlsbad, Calif.), according to manufacturer's instruction. The virus was titered in MT-2 cells using luciferase enzyme activity as a marker. Luciferase was quantitated using the Dual Luciferase kit from Promega (Madison, Wis.), with modifications to the manufacturer's protocol. The diluted Passive Lysis solution was pre-mixed with the re-suspended Luciferase Assay Reagent and the re-suspended Stop & Glo Substrate (2:1:1 ratio). Fifty (50) μL of the mixture was added to each aspirated well on assay plates and luciferase activity was measured immediately on a Wallac TriLux (Perkin-Elmer). Antiviral activities of inhibitors toward the recombinant virus were quantified by measuring luciferase activity in cells infected for 4-5 days with NLRluc recombinants in the presence serial dilutions of the inhibitor.

Point of comparison: `C=C(C)[C@@H]1CC[C@]2(C(=O)O)CC[C@]3(C)[C@H](CC[C@@H]4[C@@]5(C)CC=C(CCC(=O)O)C(C)(C)[C@@H]5CC[C@]43C)[C@@H]12` [Example 19, (1R,3aS,5aR,5bR,7aR,11aS,13aR,13bR)-9-(2-carboxyethyl)-5a,5b,8,8,11a-pentamethyl-1-(prop-1-en-2-yl)-2,3,3a,4,5,5a,5b,6,7,7a,8,11,11a,11b,12,13,13a,13b-octadecahydro-1H-cyclopenta[a]chrysene-3a-carboxylic acid], pEC50 6.33. Against it:
- C=C(C)[C@@H]1CC[C@]2(NCCN3CCS(=O)(=O)CC3)CC[C@]3(C)[C@H](CC[C@@H]4[C@@]5(C)CC=C(CCC(C)(C)CC(=O)O)C(C)(C)[C@@H]5CC[C@]43C)[C@@H]12 [Example 6, 5-((1R,3aS,5aR,5bR,7aR,11aS,11bR,13aR,13bR)-3a-((2-(1,1-dioxidothiomorpholino)ethyl)amino)-5a,5b,8,8,11a-pentamethyl-1-(prop-1-en-2-yl)-2,3,3a,4,5,5a,5b,6,7,7a,8,11,11a,11b,12,13,13a,13b-octadecahydro-1H-cyclopenta[a]chrysen-9-yl)-3,3-dimethylpentanoic acid] — 2.53 log units higher, 8.86
- C=C(C)[C@@H]1CC[C@]2(NCCN3CCS(=O)(=O)CC3)CC[C@]3(C)[C@H](CC[C@@H]4[C@@]5(C)CC=C(CC6CCC(OC)(C(=O)O)CC6)C(C)(C)[C@@H]5CC[C@]43C)[C@@H]12 (stereo partly drawn) [Example 9, 4-(((1R,3aS,5aR,5bR,7aR,11aS,11bR,13aR,13bR)-3a-((2-(1,1-dioxidothiomorpholino)ethyl)amino)-5a,5b,8,8,11a-pentamethyl-1-(prop-1-en-2-yl)-2,3,3a,4,5,5a,5b,6,7,7a,8,11,11a,11b,12,13,13a,13b-octadecahydro-1H-cyclopenta[a]chrysen-9-yl)methyl)-1-methoxycyclohexanecarboxylic acid] — 2.10 log units higher, 8.43
- C=C(C)[C@@H]1CC[C@]2(NCCN3CCC(S(C)(=O)=O)CC3)CC[C@]3(C)[C@H](CC[C@@H]4[C@@]5(C)CC=C(CCC(C)(C)CC(=O)O)C(C)(C)[C@@H]5CC[C@]43C)[C@@H]12 [Example 18, 3,3-dimethyl-5-((1R,3aS,5aR,5bR,7aR,11aS,11bR,13aR,13bR)-5a,5b,8,8,11a-pentamethyl-3a-((2-(4-(methylsulfonyl)piperidin-1-yl)ethyl)amino)-1-(prop-1-en-2-yl)-2,3,3a,4,5,5a,5b,6,7,7a,8,11,11a,11b,12,13,13a,13b-octadecahydro-1H-cyclopenta[a]chrysen-9-yl)pentanoic acid] — 2.63 log units higher, 8.96
- C=C(C)[C@@H]1CC[C@]2(NCCN3CCC(S(C)(=O)=O)CC3)CC[C@]3(C)[C@H](CC[C@@H]4[C@@]5(C)CC=C(C=C6CC(C(=O)O)C6)C(C)(C)[C@@H]5CC[C@]43C)[C@@H]12 (stereo partly drawn) [Example B4, 3-(((1R,3aS,5aR,5bR,7aR,11aS,11bR,13aR,13bR)-5a,5b,8,8,11a-pentamethyl-3a-((2-(4-(methylsulfonyl)piperidin-1-yl)ethyl)amino)-1-(prop-1-en-2-yl)-2,3,3a,4,5,5a,5b,6,7,7a,8,11,11a,11b,12,13,13a,13b-octadecahydro-1H-cyclopenta[a]chrysen-9-yl)methylene)cyclobutanecarboxylic acid] — 2.89 log units higher, 9.22
- C=C(C)[C@@H]1CC[C@]2(NCCN3CCS(=O)(=O)CC3)CC[C@]3(C)[C@H](CC[C@@H]4[C@@]5(C)CC=C(CCC(C)(C)CC(=O)NC#N)C(C)(C)[C@@H]5CC[C@]43C)[C@@H]12 [Example 14, N-cyano-5-((1R,3aS,5aR,5bR,7aR,11aS,11bR,13aR,13bR)-3a-((2-(1,1-dioxidothiomorpholino)ethyl)amino)-5a,5b,8,8,11a-pentamethyl-1-(prop-1-en-2-yl)-2,3,3a,4,5,5a,5b,6,7,7a,8,11,11a,11b,12,13,13a,13b-octadecahydro-1H-cyclopenta[a]chrysen-9-yl)-3,3-dimethylpentanamide] — 2.00 log units higher, 8.33
- C=C(C)[C@@H]1CC[C@]2(NCCN3CCS(=O)(=O)CC3)CC[C@]3(C)[C@H](CC[C@@H]4[C@@]5(C)CC=C(CCC(C)(C)CC(=O)NS(C)(=O)=O)C(C)(C)[C@@H]5CC[C@]43C)[C@@H]12 [Example 15, 5-((1R,3aS,5aR,5bR,7aR,11aS,11bR,13aR,13bR)-3a-((2-(1,1-dioxidothiomorpholino)ethyl)amino)-5a,5b,8,8,11a-pentamethyl-1-(prop-1-en-2-yl)-2,3,3a,4,5,5a,5b,6,7,7a,8,11,11a,11b,12,13,13a,13b-octadecahydro-1H-cyclopenta[a]chrysen-9-yl)-3,3-dimethyl-N-(methylsulfonyl)pentanamide] — 2.47 log units higher, 8.80
- C=C(C)[C@@H]1CC[C@]2(NCCN3CCS(=O)(=O)CC3)CC[C@]3(C)[C@H](CC[C@@H]4[C@@]5(C)CC=C(CCCC(=O)O)C(C)(C)[C@@H]5CC[C@]43C)[C@@H]12 [Example 11, 4-((1R,3aS,5aR,5bR,7aR,11aS,11bR,13aR,13bR)-3a-((2-(1,1-dioxidothiomorpholino)ethyl)amino)-5a,5b,8,8,11a-pentamethyl-1-(prop-1-en-2-yl)-2,3,3a,4,5,5a,5b,6,7,7a,8,11,11a,11b,12,13,13a,13b-octadecahydro-1H-cyclopenta[a]chrysen-9-yl)butanoic acid] — 1.67 log units higher, 8.00
- C=C(C)[C@@H]1CC[C@]2(NCCN3CCS(=O)(=O)CC3)CC[C@]3(C)[C@H](CC[C@@H]4[C@@]5(C)CC=C(CC6CCC(OCC)(C(=O)O)CC6)C(C)(C)[C@@H]5CC[C@]43C)[C@@H]12 (stereo partly drawn) [Example 8, 4-(((1R,3aS,5aR,5bR,7aR,11aS,11bR,13aR,13bR)-3a-((2-(1,1-dioxidothiomorpholino)ethyl)amino)-5a,5b,8,8,11a-pentamethyl-1-(prop-1-en-2-yl)-2,3,3a,4,5,5a,5b,6,7,7a,8,11,11a,11b,12,13,13a,13b-octadecahydro-1H-cyclopenta[a]chrysen-9-yl)methyl)-1-ethoxycyclohexanecarboxylic acid] — 2.05 log units higher, 8.38
- C=C(C)[C@@H]1CC[C@]2(NCCN3CCS(=O)(=O)CC3)CC[C@]3(C)[C@H](CC[C@@H]4[C@@]5(C)CC=C(/C=C/C6CC6(NC(=O)OC(C)(C)C)C(=O)O)C(C)(C)[C@@H]5CC[C@]43C)[C@@H]12 (stereo partly drawn) [Example B2, 1-((tert-butoxycarbonyl)amino)-2-((E)-2-((1R,3aS,5aR,5bR,7aR,11aS,11bR,13aR,13bR)-3a-((2-(1,1-dioxidothiomorpholino)ethyl)amino)-5a,5b,8,8,11a-pentamethyl-1-(prop-1-en-2-yl)-2,3,3a,4,5,5a,5b,6,7,7a,8,11,11a,11b,12,13,13a,13b-octadecahydro-1H-cyclopenta[a]chrysen-9-yl)vinyl)cyclopropanecarboxylic acid] — 1.07 log units higher, 7.40
- C=C(C)[C@@H]1CC[C@]2(NCCN3CCC(S(C)(=O)=O)CC3)CC[C@]3(C)[C@H](CC[C@@H]4[C@@]5(C)CC=C(C=C6CCC(F)(C(=O)O)CC6)C(C)(C)[C@@H]5CC[C@]43C)[C@@H]12 (mixture of isomers) [Example B3, 1-fluoro-4-(((1R,3aS,5aR,5bR,7aR,11aS,11bR,13aR,13bR)-5a,5b,8,8,11a-pentamethyl-3a-((2-(4-(methylsulfonyl)piperidin-1-yl)ethyl)amino)-1-(prop-1-en-2-yl)-2,3,3a,4,5,5a,5b,6,7,7a,8,11,11a,11b,12,13,13a,13b-octadecahydro-1H-cyclopenta[a]chrysen-9-yl)methylene)cyclohexanecarboxylic acid] — 2.02 log units higher, 8.35
- CC(C)[C@@H]1CC[C@]2(NCCN3CCS(=O)(=O)CC3)CC[C@]3(C)[C@H](CC[C@@H]4[C@@]5(C)CCC(CCCC(C)(C)C(=O)O)C(C)(C)[C@@H]5CC[C@]43C)[C@@H]12 (stereo partly drawn) [Example 17, 5-((1S,3aS,5aR,5bR,7aS,11aS,11bR,13aR,13bR)-3a-((2-(1,1-dioxidothiomorpholino)ethyl)amino)-1-isopropyl-5a,5b,8,8,11a-pentamethylicosahydro-1H-cyclopenta[a]chrysen-9-yl)-2,2-dimethylpentanoic acid] — 1.81 log units higher, 8.14
